Measurements published in patent US20180298340A1, “SYSTEMS FOR DETECTING, MONITORING OR TREATING DISEASES OR CONDITIONS USING ENGINEERED CELLS AND METHODS FOR MAKING AND USING THEM” (The Regents of the University of California, priority 2015, published 2018).

Key:
[1] = cited from earlier work
YAP/TAZ [2] = assay: MRCS-eGFP on firm substrate treated with mechano-sensing inhibitors (immunofluorescence); assay type: cell-based, human; conditions: firm (~40 kPa) poly-acrylamide; blebbistatin (5004 [sic]), 10 μM ML-7, 20 μM PF228
Experimental: FIG. 16A-L illustrate images of exemplary MRCS-eGFP showing that MRCS is stiffness specific in vitro. MRCS was plated on firm (approximately 40 kPa) poly-acrylamide and treated with (FIG. 16A, FIG. 16D, FIG. 16G, FIG. 16J) […] blebbistatin and (FIG. 16B, E, FIG. 16H, FIG. 16K) 10 μM ML-7 (myosin light-chain kinase inhibitors) as well as (FIG. 16C, FIG. 16F, FIG. 16I, FIG. 16K) 20 μM PF228 (focal adhesion kinase inhibitor). […] Scale bar=50 μm.
MRCS-eGFP sensing was also shown to be reversibly stiffness-dependent (FIG. 16). Cells plated on stiff, activating substrate (approximately 40 kPa) were deactivated with the addition of blebbistatin and ML-7 (myosin light-chain kinase inhibitors) or PF228 (a focal adhesion kinase inhibitor). This was seen from the lack of GFP fluorescence (FIG. 16A-C) and from the localization of YAP/TAZ to the cytoplasm (FIG. 16D-F). Real-time RT-PCR was performed on the seeded MRCS-eGFP cells to quantify relative mRNA expression levels of eGFP and two downstream factors of YAP/TAZ, CTGF (Connective Tissue Growth Factor) and ANKRDI (ANKyrin Repeat Domain-containing protein 1) (FIG. 17). […] N-MSC plated on stiff substrate was a control.

YAP/TAZ [3] = assay: MRCS-Luc luciferase activity on substrates with different stiffness; assay type: cell-based, human; conditions: compared to uninhibited cells on stiff, activating substrates
Experimental: FIG. 18 graphically illustrates data showing that MRCS-luciferase (MRCS-Luc) is stiffness specific in vitro. MRCS-Luc was seeded on substrates with different stiffness. […] D-Luciferin: 150 μg/ml in MSC growth medium. *P<0.05, **P<0.01.
The MRCS with engineered reporter-Luc construct (MRCS-Luc) was also found to be stiffness specific in vitro, similar to MRCS-eGFP (FIG. 18). […] C-MSC constitutively expressing luciferase served as a positive control, and N-MSC with no luciferase activity served as a negative control.

YAP/TAZ [4] = assay: MRCS-CD on firm substrate treated with mechano-sensing inhibitors; assay type: cell-based, human; conditions: firm (~40 kPa) poly-acrylamide; 50 μM blebbistatin, 10 μM ML-7, 20 μM PF228
Experimental: FIG. 20 graphically illustrates data showing that MRCS-CD is stiffness specific in vitro based on stiffness inhibitor studies. MRCS was plated on firm (approximately 40 kPa) poly-acrylamide and treated with (A,D,G,J) 50 μM blebbistatin and (B,E,H,K) 10 μM ML-7 (myosin light-chain kinase inhibitors) as well as (C,F,I,K) 20 μM PF228 (focal adhesion kinase inhibitor). […] Scale bar=50 μm.
MRCS-CD sensing was also shown to be reversibly stiffness-dependent (FIG. 20). Cells plated on stiff, activating substrate (approximately 40 kPa) were deactivated with the addition of blebbistatin and ML-7 (myosin light-chain kinase inhibitors) or PF228 (a focal adhesion kinase inhibitor). This was seen from the lack of GFP fluorescence (FIG. 20A-C) and from the localization of YAP/TAZ to the cytoplasm (FIG. 20D-F).

| luciferase expression levels of MRCS-Luc with inhibitor (YAP/TAZ [3]) | cytosine deaminase (CD) of MRCS with inhibitor (YAP/TAZ [4]) | Compound | plasma half-life [1] | YAP/TAZ localization in MRCS with inhibitor (YAP/TAZ [2]) | eGFP of MRCS with inhibitor (YAP/TAZ [2]) | YAP/TAZ localization in MRCS-CD with inhibitor (YAP/TAZ [4]) |
| --- | --- | --- | --- | --- | --- | --- |
| – | – | E. coli beta-gal: E. coli beta-galactosidase reporter enzyme | less than 60 min | – | – | – |
| significantly lowered | turned off | Cc1ccc2c(c1)C(=O)C1(O)CCN(c3ccccc3)C1=N2 (stereo not shown) [blebbistatin] | – | in cytoplasm | turned off | in cytoplasm |
| significantly lowered | turned off | CS(=O)(=O)c1cccc(CNc2nc(Nc3ccc4c(c3)CCC(=O)N4)ncc2C(F)(F)F)c1 [PF228] | – | in cytoplasm | turned off | in cytoplasm |
| significantly lowered | turned off | O=S(=O)(c1cccc2c(I)cccc12)N1CCCNCC1 [ML-7] | – | in cytoplasm | turned off | in cytoplasm |
